The values that follow come from publication PMC9411599.

Series [1] in a line: photoredox thiol-yne dihydrothiolation of acetylene by dithiol ([1+1] macrocyclisation, forms S-CH2CH2-S bridge); [Ir(d(tBu)(CF3)ppy)2(dtbbpy)]Cl 1 mol%, DIPEA 1.5 equiv, acetylene balloon, blue LEDs 455 nm. The following applies: the molecule shown is the open-chain precursor, DMF/H2O 50:1, 50.0 mM, 25.0 °C.
The conditions of series [2]: the molecule shown is the open-chain precursor.

Each structure is given as a SMILES string. Where two headings read alike, the source gives them in different places.

`O=C(CCS)OCc1ccc(COC(=O)CCS)o1` [41]: in series [1] (17-membered ring, 12.0 h), the ring closure, isolated yield stood at 15%. For `O=C(CCS)OCCCCCCCCCOC(=O)CCS` [16], the ring closure, isolated yield in series [1] (21-membered ring, 12.0 h) was 24%.

Regarding `SCCCS` [54 substrate (only [2+2])], in series [1] (7-membered ring, 12.0 h), the ring closure, isolated yield came out at 0%. With `SCCCCCCOc1ccc2ccccc2c1-c1c(OCCCCCCS)ccc2ccccc12` [44 ((R)-BINOL, axial stereo not in SMILES)], the ring closure, isolated yield in series [1] (22-membered ring, 12.0 h) came to 35%. As to `O=C(OCCCCCCS)C12CC3CC(C1)CC(C(=O)OCCCCCCS)(C3)C2` [31], in series [1] (23-membered ring, 12.0 h), the ring closure, isolated yield was determined as 32%. Regarding `SCCCCCCS` [57 substrate (only [2+2])], the ring closure, isolated yield in series [1] (10-membered ring, 12.0 h) was determined as 0%. For `O=C(CS)OCCCCOC(=O)CS` [4], the ring closure, isolated yield in series [1] (14-membered ring, 12.0 h) came out at 32%. `CN(CC(=O)OCCCCCCS)CC(=O)OCCCCCCS` [28]: the ring closure, isolated yield in series [1] (23-membered ring, 12.0 h) came to 24%. As for `O=C(CCS)OCc1cccc(COC(=O)CCS)n1` [40], in series [1] (17-membered ring, 12.0 h), the ring closure, isolated yield was found to be 32%. With `O=C(CCS)OCCCCCOc1ccc2ccccc2c1-c1c(OCCCCCOC(=O)CCS)ccc2ccccc12` [47 ((R)-BINOL, axial stereo not in SMILES)], the ring closure, isolated yield in series [1] (28-membered ring, 12.0 h) stood at 29%. `O=C(CCS)OCCCCCCOc1ccc2ccccc2c1-c1c(OCCCCCCOC(=O)CCS)ccc2ccccc12` [48 ((R)-BINOL, axial stereo not in SMILES)]: in series [1] (30-membered ring, 12.0 h), the ring closure, isolated yield was determined as 26%. In the case of `O=C(CCS)OCCCCCOC(=O)CCS` [11], the ring closure, isolated yield in series [1] (17-membered ring, 12.0 h) was 38%.

Consider `O=C(CCS)OCCOCCOCCOCCOCCOCCOCCOCCOC(=O)CCS` [26], for which the ring closure, isolated yield in series [1] (35-membered ring, 12.0 h) was determined as 18%. In the case of `O=C(OCCCCCCS)[c-]1cccc1.O=C(OCCCCCCS)[c-]1cccc1.[Fe+2]` [42 (ferrocene)], the ring closure, isolated yield in series [2] stood at 8%. Turning to `O=C(CCS)OCc1ccccc1COC(=O)CCS` [34], the ring closure, isolated yield in series [1] (16-membered ring, 12.0 h) is 39%. As for `O=C(CCS)OCc1ccc(COC(=O)CCS)cc1` [37], in series [1] (18-membered ring, 12.0 h), the ring closure, isolated yield was 8%.

As to `O=C(CCS)OCCCCCCCCCCCCOC(=O)CCS` [18], the ring closure, isolated yield in series [1] (24-membered ring, 12.0 h) amounted to 25%. As for `SCCCOc1ccc2ccccc2c1-c1c(OCCCS)ccc2ccccc12` [43 ((R)-BINOL, axial stereo not in SMILES)], in series [1] (16-membered ring, 12.0 h), the ring closure, isolated yield was determined as 40%.

With `O=C(CCS)OCCN1CCN(CCOC(=O)CCS)CC1` [32], the ring closure, isolated yield in series [1] (20-membered ring, 12.0 h) is 21%. For the compound `CC(CC(C)OC(=O)CCS)OC(=O)CCS` (racemic) [8 (+/-)], in series [1] (15-membered ring, 12.0 h), the ring closure, isolated yield stood at 33%. For `O=C(CCS)OCCCCCCOc1cccc2c1C1(CC2)CCc2cccc(OCCCCCCOC(=O)CCS)c21` (single isomer, unassigned) [51 ((R)-spirobiindane, stereo not in SMILES)], the ring closure, isolated yield in series [1] (31-membered ring, 12.0 h) worked out at 21%.

`O=C(OCCCCCCS)[C@H]1CC[C@H](C(=O)OCCCCCCS)CC1` [29 (trans)]: the ring closure, isolated yield in series [1] (24-membered ring, 12.0 h) worked out at 26%. Consider `O=C(OCCCCCCS)c1ccccc1S` [33], for which the ring closure, isolated yield in series [1] (14-membered ring, 12.0 h) is 25%.

Take `O=C(CCS)OCCOc1ccc(OCCOC(=O)CCS)cc1` [38]: the ring closure, isolated yield in series [1] (22-membered ring, 12.0 h) was found to be 22%. With `O=C(OCCCCCCS)C12CCC(C(=O)OCCCCCCS)(CC1)CC2` [30], the ring closure, isolated yield in series [1] (24-membered ring, 12.0 h) was 28%.

Regarding `O=C(CCS)OCCCOC(=O)CCS` [6], the ring closure, isolated yield in series [1] (15-membered ring, 12.0 h) came to 30%. As to `C[C@H](S)C(=O)NCC(=O)OCCCCCCS` [50 (S per text; SI also names R)], in series [1] (16-membered ring, 12.0 h), the ring closure, isolated yield was determined as 19%. On to `CC(COC(=O)CCS)COC(=O)CCS` [7], for which the ring closure, isolated yield in series [1] (15-membered ring, 12.0 h) turned out to be 27%.

For the compound `O=C(OCCCCCCS)C(F)(F)C(F)(F)C(F)(F)C(F)(F)C(=O)OCCCCCCS` [21], the ring closure, isolated yield in series [1] (24-membered ring, 12.0 h) is 31%. Consider `O=C(CCS)OCCCCCCCOC(=O)CCS` [14 (=3)], for which, in series [1] (19-membered ring, 12.0 h), the ring closure, isolated yield amounted to 26%. For the compound `SCCS` [52 substrate (only [2+2])], the ring closure, isolated yield in series [1] (6-membered ring, 12.0 h) is 0%. `O=C(CCS)OCCCCCCCCCCOC(=O)CCS` [17]: the ring closure, isolated yield in series [1] (22-membered ring, 12.0 h) came out at 20%. In the case of `O=C(CCS)OCCOCCOC(=O)CCS` [23], the ring closure, isolated yield in series [1] (17-membered ring, 12.0 h) is 29%. On to `O=C(OCCCCCCS)C(F)(F)C(F)(F)C(=O)OCCCCCCS` [20], for which the ring closure, isolated yield in series [1] (22-membered ring, 12.0 h) was determined as 33%. On to `OC(CS)C(O)CS` (stereo not shown) [53 substrate (only [2+2])], for which the ring closure, isolated yield in series [1] (8-membered ring, 12.0 h) came to 0%. Regarding `CC(C)(COC(=O)CCS)COC(=O)CCS` [9], the ring closure, isolated yield in series [1] (15-membered ring, 12.0 h) is 32%.

In the case of `O=C(CCS)OCCCCCCOC(=O)CCS` [12], in series [1] (18-membered ring, 12.0 h), the ring closure, isolated yield was found to be 23%. `O=C(CCS)OCCCCCCCCCCCCCCOC(=O)CCS` [19]: the ring closure, isolated yield in series [1] (26-membered ring, 12.0 h) came to 21%.

For the compound `O=C(CCS)OCCCOc1ccc2ccc(OCCCOC(=O)CCS)cc2c1` [39], the ring closure, isolated yield in series [1] (25-membered ring, 12.0 h) came out at 31%. Regarding `O=C(CCS)OCCCOc1ccc2ccccc2c1-c1c(OCCCOC(=O)CCS)ccc2ccccc12` [45 ((R)-BINOL, axial stereo not in SMILES)], the ring closure, isolated yield in series [1] (24-membered ring, 12.0 h) worked out at 30%. As to `O=C(CCS)OCc1cccc(COC(=O)CCS)c1` [36], the ring closure, isolated yield in series [1] (17-membered ring, 12.0 h) was 37%.

Take `O=C(CCS)OCCOCCOCCOCCOC(=O)CCS` [25]: in series [1] (23-membered ring, 12.0 h), the ring closure, isolated yield turned out to be 27%. Take `O=C(CCS)OCCN(CCOC(=O)CCS)c1ccccc1` [27]: the ring closure, isolated yield in series [1] (17-membered ring, 12.0 h) amounted to 38%. For `O=C(CCS)OCCOC(=O)CCS` [5], in series [1] (14-membered ring, 12.0 h), the ring closure, isolated yield came out at 42%.

On to `O=C(CCS)OCCOCCOCCOC(=O)CCS` [24], for which the ring closure, isolated yield in series [1] (20-membered ring, 12.0 h) amounted to 28%. Consider `SCCCCS` [55 substrate (only [2+2])], for which the ring closure, isolated yield in series [1] (8-membered ring, 12.0 h) was 0%. Turning to `O=C(CCS)OCCCCCCCCOC(=O)CCS` [15], in series [1] (20-membered ring, 12.0 h), the ring closure, isolated yield was found to be 22%. As to `SCCCCCCCCCCS` [60 substrate (only [2+2])], the ring closure, isolated yield in series [1] (14-membered ring, 12.0 h) is 0%. Turning to `SCCCCCCCCS` [58 substrate (only [2+2])], the ring closure, isolated yield in series [1] (12-membered ring, 12.0 h) was 0%. Regarding `SCCCCCS` [56 substrate (only [2+2])], the ring closure, isolated yield in series [1] (9-membered ring, 12.0 h) was determined as 0%. As for `O=C(CCS)O[C@H]1CCCC[C@@H]1OC(=O)CCS` [49 (1S,2S per text; SI product procedure names 1R,2R)], the ring closure, isolated yield in series [1] (14-membered ring, 12.0 h) turned out to be 38%.

For the compound `SCCOCCS` [64 (dimer 63)], in series [1] (9-membered ring, 12.0 h), the ring closure, isolated yield stood at 23%. Consider `SCCSCCCSCCS` [66 (dimer 65)], for which the ring closure, isolated yield in series [1] (13-membered ring, 12.0 h) worked out at 17%.

Take `O=C(CCCCCCC(=O)OCCS)OCCS` [13]: the ring closure, isolated yield in series [1] (18-membered ring, 12.0 h) stood at 28%.

`O=C(CCS)OCCCCOC(=O)CCS` [10]: the ring closure, isolated yield in series [1] (16-membered ring, 12.0 h) came out at 36%.

In the case of `SCCCCCCCCCS` [59 substrate (only [2+2])], the ring closure, isolated yield in series [1] (13-membered ring, 12.0 h) worked out at 0%. As to `O=C(COc1ccccc1OCC(=O)OCCCCCCS)OCCCCCCS` [35], in series [1] (26-membered ring, 12.0 h), the ring closure, isolated yield was determined as 24%. For the compound `SCCOCCOCCS` [62 (dimer 61)], in series [1] (12-membered ring, 12.0 h), the ring closure, isolated yield was 42%. Consider `O=C(COCC(=O)OCCCCCCS)OCCCCCCS` [22], for which the ring closure, isolated yield in series [1] (23-membered ring, 12.0 h) amounted to 23%. Consider `SCCCCCCCCOc1ccc2ccccc2c1-c1c(OCCCCCCCCS)ccc2ccccc12` [46 ((R)-BINOL, axial stereo not in SMILES)], for which the ring closure, isolated yield in series [1] (26-membered ring, 12.0 h) came out at 28%. As to `O=C(OCCOc1ccc(OCCOC(=O)c2ccccc2S)cc1)c1ccccc1S`, in series [1] (22-membered ring), the ring closure, isolated yield was 0%.
